The record followed here is ChEMBL document CHEMBL4325917, “Heterocyclic Amides as Kinase Inhibitors” (ACS Med Chem Lett, 2018).

This assay addresses T1, Receptor-interacting serine/threonine-protein kinase 1 (Homo sapiens, UniProt Q13546).
T1 sequence (Q13546 whole entry): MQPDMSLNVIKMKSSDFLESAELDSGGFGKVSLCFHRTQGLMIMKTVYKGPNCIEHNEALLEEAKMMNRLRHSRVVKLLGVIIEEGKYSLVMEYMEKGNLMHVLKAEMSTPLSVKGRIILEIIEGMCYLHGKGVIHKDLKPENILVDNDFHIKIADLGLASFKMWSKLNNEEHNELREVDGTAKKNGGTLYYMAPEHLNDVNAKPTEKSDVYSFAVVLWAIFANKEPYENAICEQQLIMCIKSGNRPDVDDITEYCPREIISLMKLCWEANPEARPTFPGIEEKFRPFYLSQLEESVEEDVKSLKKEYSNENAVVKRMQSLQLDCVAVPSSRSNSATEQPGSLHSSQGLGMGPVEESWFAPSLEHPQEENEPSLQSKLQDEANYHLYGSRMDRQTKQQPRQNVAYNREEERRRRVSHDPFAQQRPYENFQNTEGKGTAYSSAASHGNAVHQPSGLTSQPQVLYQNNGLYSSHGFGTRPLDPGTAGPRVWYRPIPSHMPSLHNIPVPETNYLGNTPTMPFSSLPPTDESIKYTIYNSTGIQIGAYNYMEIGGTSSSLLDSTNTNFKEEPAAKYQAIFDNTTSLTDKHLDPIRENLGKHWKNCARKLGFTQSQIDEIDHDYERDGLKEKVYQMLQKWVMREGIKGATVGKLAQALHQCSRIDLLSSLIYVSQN
Kind of assay: Binding affinity to RIP1 (unknown origin) by fluorescence polarization assay.

The structures appear in SMILES notation.

For the compound `O=C(N[C@H]1CNc2cc(Cl)ccc2NC1=O)c1nnc(Cc2ccccc2)[nH]1`, the IC50 – broadly, the point on the concentration scale where inhibition reaches its midpoint – is 20 nM.
